Legend:
PDE4D5 = target: T1, PDE4D5 (Homo sapiens, UniProt Q08499); assay: PDE assay, activation of full-length human PDE4D5 long form ([3H]cAMP radio-assay); type: biochemical; details: for activation at 30 µM: 30 μM test compound, mean % increase in counts over basal activity
T1 construct: Using Full-Length Human PDE4 Isoforms: Long Forms PDE4D5, PDE4C3, PDE4B1 and Short Form PDE4B2; made in house; cytosol fraction of the cell lysate, not purified
From the text: Experiment 1: Measurement of Modulation of Enzyme Activity by PDE4 Long Form Activators of the Present Invention Using Full-Length Human PDE4 Isoforms: Long Forms PDE4D5, PDE4C3, PDE4B1 and Short Form PDE4B2
(Marchmont, R. J. and Houslay, M. D. Biochem. J. 187: 381-92, 1980)
For transient transfection of exogenous PDE4 long isoforms, HEK 293 cells were transfected with pcDNA3.1 or pDEST™ PDE4 expression vectors using Lipofectamine LTX/Plus reagent (Invitrogen) as outlined by the manufacturer.
Where stable cell lines were generated the clonal isolates were expanded to obtain cell lines that stably expressed the full-length human PDE4 long isoforms and the full length human PDE4B2 short isoform. These were called the HEK-PDE4D5, HEK-PDE4B1 and HEK-PDE4B2 cell lines, respectively.
HEK-PDE4D5 cells were seeded out in 100 mm plates and incubated at 37° C. in an atmosphere of 5% CO2, 95% air. Cell lysates were prepared using KHEM buffer [50 mM KCl, 10 mM EGTA, 50 mM HEPES (pH 7.2), 1.92 mM MgCl2].
To prepare the cell lysates, the 100 mm plates containing the cells were placed on ice and washed with ice-cold PBS (phosphate buffered saline, pH 7.4). KHEM buffer (500 μl) was added to the cells. Cells were then scraped off the plate and triturated using a needle (BD Microlance™ 0.8, 40 mm). The lysed cells were then centrifuged at 2000 rpm for 10 minutes to remove cell debris and the supernatant (cell lysate containing recombinant PDE4D5) was transferred to a fresh tube and kept on ice.
The cell lysate containing recombinant PDE4D5 was transferred into a centrifuge tube and placed into an ultracentrifuge (BECKMAN COULTER) and spun at high speed (100,000 g) for 30 minutes at 4° C. The cytosol fraction was then collected and its protein amount determined using a BCA protein assay.
PDE assays were performed in thin walled V-bottomed 96-well plates. The assays were performed at a final concentration of 10 mM Tris/5 mM MgCl2 μlus PDE4D5 cell lysate cytosol fraction, containing over-expressed PDE4D5, with and without test compound. The lysate/compound mix were incubated together for 15 min at room temperature on an orbital shaker prior to addition of [^3H] cAMP (final concentration 1 μM [^3H] cAMP; Perkin Elmer) to a final volume of 50 μl per reaction. The reactions were then incubated for 10 minutes at 30° C., terminated by heating for 2 min at 95° C. and allowed to cool. Snake venom (12.5 μl of 1 mg/ml; Crotalus atrox, Sigma) was then added and the plates were agitated and incubated for a further 15 minutes at 30° C. Dowex ion exchange resin (Sigma, chloride form, 200-400 mesh; 200 μl; prepared as a 1:1 Dowex: water stock, thoroughly re-suspended and diluted 2:1 with ethanol) was then added to each well and the plates incubated for 15 min at room temperature on an orbital shaker ensuring sufficient agitation for resin suspension (550 RPM). The reaction mixture was then transferred to a 96 well filter plate (Millipore; […] pore size) and filtered into a receiving 96-well plate to remove the dowex suspension. 30 μL of the filtered solution was then transferred to the wells of an Opti-plate (Perkin Elmer) 96 well assay plate and 120 μl of Microscint 40 scintillation fluid was added. The plate was then placed on an orbital shaker for 10 min at high speed (900 RPM) to mix the sample with scintillation fluid prior to quantitation using a plate based scintillation counter (Top-Count).
The % increase in counts in the presence of test compound at a particular concentration indicates the % increase in enzyme activity at that concentration.

m-IMCD3 cells = assay: Inhibition of PGE2-stimulated in vitro cyst formation in 3D culture of m-IMCD3 cells; type: cell-based, mouse; details: Mus musculus, mIMCD3, 144 h; 10 μM test compound; mean cyst area (%) compared to 100% for (DMSO + PGE2) and 0% for DMSO control; 100 nM PGE2; 6 days; read-out: % Cyst area after incubation with 10 μM test compound
Outline: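 Mouse m-IMCD3 cells grown in 3D collagen I/Matrigel gels. From 18-24 h after plating, compound (0.1% DMSO) plus 100 nM PGE2 were added and replenished at 2-3 days. After 6 days, imaging gave mean cyst area, scaled to 100% for DMSO+PGE2 and 0% for DMSO alone.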

T1 sequence (Q08499 1-745 isoform Q08499-6): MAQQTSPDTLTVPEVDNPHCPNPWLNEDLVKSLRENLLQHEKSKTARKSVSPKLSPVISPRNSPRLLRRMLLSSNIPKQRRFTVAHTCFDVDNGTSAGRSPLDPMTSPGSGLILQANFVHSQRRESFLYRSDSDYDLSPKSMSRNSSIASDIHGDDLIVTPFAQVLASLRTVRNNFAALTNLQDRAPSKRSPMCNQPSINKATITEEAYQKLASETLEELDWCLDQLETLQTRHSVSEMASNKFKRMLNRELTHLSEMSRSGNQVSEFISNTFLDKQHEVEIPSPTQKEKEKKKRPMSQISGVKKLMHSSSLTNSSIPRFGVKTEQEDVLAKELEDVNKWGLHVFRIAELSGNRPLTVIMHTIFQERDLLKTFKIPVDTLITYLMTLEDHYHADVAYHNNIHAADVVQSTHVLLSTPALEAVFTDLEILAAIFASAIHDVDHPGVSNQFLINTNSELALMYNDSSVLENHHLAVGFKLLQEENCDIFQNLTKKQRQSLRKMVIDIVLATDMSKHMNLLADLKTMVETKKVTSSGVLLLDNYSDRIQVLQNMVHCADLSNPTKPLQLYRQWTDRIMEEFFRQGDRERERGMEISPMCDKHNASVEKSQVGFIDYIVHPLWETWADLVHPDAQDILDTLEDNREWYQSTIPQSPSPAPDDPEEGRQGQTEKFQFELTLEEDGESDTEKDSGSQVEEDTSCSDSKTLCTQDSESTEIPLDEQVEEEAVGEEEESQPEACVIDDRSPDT

O=C(N[C@H]1CCOc2ccccc21)c1ccc2nc(-c3cncc(C4CC4)c3)sc2c1 [Example 48, (S)-N-(chroman-4-yl)-2-(5-cyclopropylpyridin-3-yl)benzo[d]thiazole-6-carboxamide]
activation at 30 µM (PDE4D5): 135% | activity at 10 µM (m-IMCD3 cells): 14%

O=C(N[C@H]1CCOc2ccccc21)c1ccc2nc(-c3cncc(C(F)F)c3)sc2c1 [Example 63, (S)-N-(chroman-4-yl)-2-(5-(difluoromethyl)pyridin-3-yl)benzo[d]thiazole-6-carboxamide]
activation at 30 µM (PDE4D5): 110% | activity at 10 µM (m-IMCD3 cells): 16%

O=C(N[C@H]1CCOc2ccccc21)c1ccc2nc(-c3ccc(C(F)(F)F)nc3)sc2c1 [Example 25, (S)-N-(chroman-4-yl)-2-(6-(trifluoromethyl)pyridin-3-yl)benzo[d]thiazole-6-carboxamide]
activation at 30 µM (PDE4D5): 37% | activity at 10 µM (m-IMCD3 cells): 23%

O=C(N[C@H]1CCOc2ccccc21)c1ccc2nc(-c3cncc(C(F)(F)F)c3)sc2c1 [Example 47, (S)-N-(chroman-4-yl)-2-(5-(trifluoromethyl)pyridin-3-yl)benzo[d]thiazole-6-carboxamide]
activation at 30 µM (PDE4D5): 102% | activity at 10 µM (m-IMCD3 cells): 12%

Cc1ncccc1-c1nc2ccc(C(=O)NCc3ccc(Cl)cc3)cc2s1 [Example 1, N-(4-chlorobenzyl)-2-(2-methylpyridin-3-yl)benzo[d]thiazole-6-carboxamide]
activation at 30 µM (PDE4D5): 48% | activity at 10 µM (m-IMCD3 cells): -7%

Cc1nn(C)c(C)c1-c1nc2ccc(C(=O)N[C@H]3CCOc4ccccc43)cc2s1 [Example 59, (S)-N-(chroman-4-yl)-2-(1,3,5-trimethyl-1H-pyrazol-4-yl)benzo[d]thiazoIe-6-carboxamide]
activation at 30 µM (PDE4D5): 77% | activity at 10 µM (m-IMCD3 cells): 20%

CC(C)c1cncc(-c2nc3ccc(C(=O)N[C@H]4CCOc5ccccc54)cc3s2)c1 [Example 49, (S)-N-(chroman-4-yl)-2-(5-isopropylpyridin-3-yl)benzo[d]thiazole-6-carboxamide]
activation at 30 µM (PDE4D5): 131% | activity at 10 µM (m-IMCD3 cells): 9%

Cc1cncc(-c2nc3ccc(C(=O)N[C@@H]4c5ccccc5C[C@H]4O)cc3s2)c1 [Example 42, N-((1R,2R)-2-hydroxy-2,3-dihydro-1H-inden-1-yl)-2-(5-methylpyridin-3-yl)benzo[d]thiazole-6-carboxamide]
activation at 30 µM (PDE4D5): 138%

O=C(N[C@H]1CCOc2ccccc21)c1ccc2nc(-c3ccc(C(F)F)nc3)sc2c1 [Example 64, (S)-N-(chroman-4-yl)-2-(6-(difluoromethyl)pyridin-3-yl)benzo[d]thiazole-6-carboxamide]
activation at 30 µM (PDE4D5): 64%

Cc1ccc(-c2nc3ccc(C(=O)NC4CCCC4)cc3s2)cn1 [Example 22, N-cyclopentyl-2-(6-methylpyridin-3-yl)benzo[d]thiazole-6-carboxamide]
activation at 30 µM (PDE4D5): 39%

Cc1nn(C)cc1-c1nc2ccc(C(=O)N[C@H]3CCOc4ccccc43)cc2s1 [Example 61, (S)-N-(chroman-4-yl)-2-(1,3-dimethyl-1H-pyrazol-4-yl)benzo[d]thiazole-6-carboxamide]
activation at 30 µM (PDE4D5): 124% | activity at 10 µM (m-IMCD3 cells): 8%

COc1ccc(CNC(=O)c2ccc3nc(-c4ccc(C)nc4)sc3c2)cc1 [Example 13, N-(4-methoxybenzyl)-2-(6-methylpyridin-3-yl)benzo[d]thiazole-6-carboxamide]
activation at 30 µM (PDE4D5): 93%

Cc1cncc(-c2nc3ccc(C(=O)N[C@H]4CCOc5ccccc54)cc3s2)c1 [Example 45, (S)-N-(chroman-4-yl)-2-(5-methylpyridin-3-yl)benzo[d]thiazole-6-carboxamide]
activation at 30 µM (PDE4D5): 102%

Cc1ccc(-c2nc3ccc(C(=O)N[C@H]4CCOc5ccccc54)cc3s2)c(C)n1 [Example 26, (S)-N-(chroman-4-yl)-2-(2,6-dimethylpyridin-3-yl)benzo[d]thiazole-6-carboxamide]
activation at 30 µM (PDE4D5): 88%

Cc1ccncc1-c1nc2cc(C(=O)N[C@H]3CCOc4ccccc43)ccc2s1 [Example 66, (S)-N-(chroman-4-yl)-2-(4-methylpyridin-3-yl)benzo[d]thiazole-5-carboxamide]
activation at 30 µM (PDE4D5): 78% | Activation of PDE4D5 (FIG. 1) (PDE4D5; concentration response, result in words): concentration-dependent activation

Cc1ccc(-c2nc3ccc(C(=O)N[C@@H]4c5ccccc5C[C@@H]4O)cc3s2)cn1 [Example 20, N-((1R,2S)-2-hydroxy-2,3-dihydro-1H-inden-1-yl)-2-(6-methylpyridin-3-yl)benzo[d]thiazole-6-carboxamide]
activation at 30 µM (PDE4D5): 105%

Cc1ccc(-c2nc3ccc(C(=O)N[C@H]4CCOc5ccccc54)cc3s2)cn1 [Example 24, (S)-N-(chroman-4-yl)-2-(6-methylpyridin-3-yl)benzo[d]thiazole-6-carboxamide]
activation at 30 µM (PDE4D5): 97%

Cc1ccc(-c2nc3ccc(C(=O)N[C@@H]4CCc5ccccc54)cc3s2)cn1 [Example 18, (R)-N-(2,3-dihydro-1H-inden-1-yl)-2-(6-methylpyridin-3-yl)benzo[d]thiazole-6-carboxamide]
activation at 30 µM (PDE4D5): 142%

Cc1cnccc1-c1nc2ccc(C(=O)N[C@H]3CCOc4ccccc43)cc2s1 [Example 55, (S)-N-(chroman-4-yl)-2-(3-methylpyridin-4-yl)benzo[d]thiazole-6-carboxamide]
activation at 30 µM (PDE4D5): 49% | activity at 10 µM (m-IMCD3 cells): 18%

Cc1cc(-c2nc3ccc(C(=O)N[C@H]4CCOc5ccccc54)cc3s2)ccn1 [Example 56, (S)-N-(chroman-4-yl)-2-(2-methylpyridin-4-yl)benzo[d]thiazole-6-carboxamide]
activation at 30 µM (PDE4D5): 107% | activity at 10 µM (m-IMCD3 cells): 10%

Cc1ccc(-c2nc3ccc(C(=O)NCc4cccc(F)c4)cc3s2)cn1 [Example 15, N-(3-fluorobenzyl)-2-(6-methylpyridin-3-yl)benzo[d]thiazole-6-carboxamide]
activation at 30 µM (PDE4D5): 99%

Cc1ccc(-c2nc3ccc(C(=O)NCc4ccccc4)cc3s2)cn1 [Example 10, N-benzyl-2-(6-methylpyridin-3-yl)benzo[d]thiazole-6-carboxamide]
activation at 30 µM (PDE4D5): 78%

Cc1c(-c2nc3ccc(C(=O)N[C@H]4CCOc5ccccc54)cc3s2)cnn1C [Example 60, (S)-N-(chroman-4-yl)-2-(1,5-dimethyl-1H-pyrazol-4-yl)benzo[d]thiazole-6-carboxamide]
activation at 30 µM (PDE4D5): 122%

O=C(N[C@H]1CCOc2ccccc21)c1ccc2nc(-c3ccncc3)sc2c1 [Example 54, (S)-N-(chroman-4-yl)-2-(pyridin-4-yl)benzo[d]thiazole-6-carboxamide]
activation at 30 µM (PDE4D5): 106%

Cc1cncc(-c2nc3ccc(C(=O)N[C@H]4c5ccccc5C[C@@H]4O)cc3s2)c1 [Example 41, N-((1S,2S)-2-hydroxy-2,3-dihydro-1H-inden-1-yl)-2-(5-methylpyridin-3-yl)benzo[d]thiazole-6-carboxamide]
activation at 30 µM (PDE4D5): 194%
